In patent US7138543B2, “Thiolalkyl benzoic acid derivatives” (Guilford Pharmaceuticals Inc., priority 2001, dated 2006):

Assays:
[1] = test system: TGF-β1; test: Effect on TGF-β1 in in vitro ischemia model; assay type: cell-based; conditions: ischemic cell cultures, FIG. 1
Description: (§1) Effect of NAALADase Inhibition on TGF-β in In vitro Ischemia Model Compound C was added to ischemia cell cultures to determine its effect on TGF-β levels during stroke.

[2] = test system: TGF-β2; test: Effect on TGF-β2 in in vitro ischemia model; assay type: cell-based; conditions: ischemic cell cultures, FIG. 2
Description: as §1

[3] = test system: ischemic cell cultures; test: Neuroprotective effect with growth factor neutralizing antibodies in in vitro ischemia model; assay type: cell-based
Description: TGF-β neutralizing antibodies were then added to the ischemic cell cultures.

[4] = test system: TGF-β1; test: TGF-β1 levels by microdialysis in MCAO rats; assay type: in vivo; conditions: during occlusion and reperfusion, FIG. 6
[5] = test system: rats subjected to middle cerebral artery occlusion; test: Neuroprotective effect with TGF-β neutralizing antibodies in MCAO rats; assay type: in vivo; conditions: FIG. 5
From the text: The effect of TGF-β neutralizing antibodies on the neuroprotective effect of Compound C was also studied in rats following MCAO.
One of ordinary skill in the art can appreciate that the regulation of TGF-β's by NAALADase inhibitors may have implications not only in stroke, but also in other diseases, disorders and conditions including, without limitation, neurological diseases, psychiatric diseases, demyelinating diseases, prostate cancer, inflammation, diabetes and angiogenesis.

[6] = test system: chronic constrictive injury-induced rats; test: Neuropathic pain in CCI model (sciatic nerve ligation); assay type: in vivo
Description: In vivo Assay of NAALADase Inhibitors on Neuropathic Pain in CCI Model
Sciatic nerve ligation, consisting of 4 ligatures tied loosely around the sciatic nerve at 1 mm intervals proximal to the nerve trifurcation, was performed on rats. […] The rats were habituated to a Hargreaves apparatus. An infrared heat source was directed onto the dorsal surface of each rat's hindpaws and the time taken for the rat to withdraw its paws was noted. The difference in scores between the latency of the response for the paw on the operated side versus the paw on the unoperated control side was determined.

## O=C(O)CCC(CP(=O)(O)O)C(=O)O (centres unmarked) [Compound C, 2-(phosphonomethyl)pentanedioic acid]
[1]
  TGF-β1 concentration: increased concentration
[2]
  TGF-β2 concentration: increased concentration
[3]; FIG. 3
  neuroprotective effect in presence of TGF-β neutralizing antibodies: blocked the neuroprotective effect
[3]; FIG. 4
  neuroprotective effect in presence of FGF antibody: did not block the neuroprotective effect
[4]
  TGF-β1 levels: significant rise in TGF-β1 levels
[5]
  neuroprotective effect in presence of TGF-β neutralizing antibodies: significantly attenuated the neuroprotective effect
[6]; 50 mg/kg i.p. daily starting 10 days post surgery, FIG. 8
  withdrawal latency difference scores between operated and unoperated paws: dramatically normalized the difference scores
[6]; 50 mg/kg i.p. daily, persisted to end of study (21 days of daily dosing)
  start of significant effect on difference scores: 11 days of drug treatment
